From US4752614A, “Pharmaceutical compositions of tellerium and selenium compounds for the induction of in vivo and in vitro production of cytokines” (Bar-Ilan University, priority 1987, dated 1988)
“And” between values parts separate entries of the source, which are not always exact repeats. Identical values can stand only once.

How the values were obtained:
IL-2 [1] = experiment: In vitro induction of IL-2 from mouse spleen cells (Example 7); assay type: cell-based, male Balb-c mice
Protocol: This example describes the in vitro making of IL-2 and CSF from mouse spleen cells using the compound of Example 1 as the extrinsic stimulating agent.
Spleens were removed from 15, male Balb-c mice 6 to 8 weeks of age. The spleen cells were pushed through stainless steel 60 mesh (U.S. standard) nets resting in 5 mm Petri dishes containing PBS in order to separate the cells. The cells were then collected into centrifuge tubes and spun at 1000 rpm for 10 minutes. The supernatant was discarded and cells were treated with 5 ml of hypotonic buffer (0.15M NH4 Cl; 0.01M KHCO3 dissolved in double distilled water, pH 7.2) for exactly two minutes. Thereafter, PBS was added to the cells and the test tubes were centrifuged for 10 minutes at 1000 rpm. The cells were rinsed twice and counted in a heamocytometer using trypan blue to test for viability. The cells were brought to a concentration of 10^7 viable cells/ml. The cells were contacted with varying amounts of the compound of Example 1 in 1 ml of 40% DMSO 60% PBS.

IL-2 [2] = experiment: IL-2 activity of supernatants of human mononuclear cells on CTLD cells (Example 8); assay type: cell-based; conditions: 72 hours
IL-2 [3] = experiment: IL-2 activity (CTLD proliferation) of Con A supernatants of spleen cells from mice injected IP (Example 3); assay type: in vivo, Balb-c mice
Protocol: A solution of the compound of Example 1 was prepared as follows: 5 mg was placed in a volumetric flask to which was added 100 ml of a solution of 40% dimethyl sulfoxide (DMSO) and 60% phosphate buffer saline (PBS) solution resulting in a concentration of 10 μg/0.2 ml. If the solution becomes turbid, it is centrifuged at 2000 rpm for ten minutes and the clear supernatant portion is used.
The test animals were Balb-c, male, mice, 6 to 8 weeks of age. All injections were made intraperitoneally using 0.2 ml of the solution of the compound of Example 1 using 25 gauge 5/8" hypodermic needle.
The animals received the following injections:
Each of groups a, b, c and d consisted of 21 animals. The animals were sacrificed daily from 24 h to 7 days after injection.
On each day, spleen cells from three of the animals from each control group were pooled together and processed by passing the spleen cells through a 60 mesh stainless steel net in a 5 mm Petri dish containing PBS in order to separate the cells. The cells were collected and centrifuged at 1000 rpm for 10 minutes. The supernatant was discarded and the cells were treated for two minutes with 5 ml of hypotonic buffer (0.15M NH4 Cl, 0.01M KHCO3 dissolved in double distilled water, pH 7.2) to kill the erythrocytes. Thereafter, PBS was added to the cells and the cells were centrifuged for 10 minutes at 1000 rpm. The cells were washed twice with PBS and counted in a haemocytometer using trypan blue to test for viability. The cells were brought to a concentration of 10^7 cells/ml using enriched RPMI containing 10% fetal calf serum (Ser Lab, Sussex, England); 5×10^-5 M 2-mercaptoethanol and 3% of d-glutamine (Bio Lab Israel) (stock solution 2m M×1000 nonessential amino acids) (Bio Lab, Israel) (stock solution×100) and sodium pyruvate (Bio Lab, Israel) (stock solution 1m M×100).
An additional three animals from each of the experimental groups were sacrificed and each of the spleens was processed separately using the same procedure.
The cell mixture was divided into two groups.
(a) Cells at a concentration of 10^7 cells/ml enriched RPMI to which was added concanavalin-A (CON A) (DiFCO, Batch 352) 2 μg./ml. These cells were incubated in 5 mm Petri dishes (NUNC) for 24 hours at 37° C., 7.5% CO2. Supernatants were collected, centrifuged at 1,600 rpm for 10 minutes and stored at 4° C. until used. These supernatants were assayed for IL-2 and CSF activity.
Prior to incubation of the cells, samples were removed from culture plates and smears of the cultures were made by cytocentrifugation. Slides were stained with May-Grunwald-Giemsa (1:10) solution and evaluated morphologically. A radioactive thymidine assay was used to determine IL-2 activity.
1. Supernatants were tested for IL-2 activity by the proliferation of the IL-2 dependent cell line CTLD. The IL-2 assay is based on the growth dependence of these cultured T-cell lines on IL-2. T cells harvested from IL-2 dependent culture, washed and placed back in culture in the absence of IL-2 invariably die within 24 hr. By using tritiated thymidine incorporation (^3 H-TdR) as an index of cultured T-cell replication, the IL-2 microassay provides a highly reproducible and quantitive indication of the amount of IL-2 activity in the supernatant prepared hereinabove.
2. To assay a condition medium for IL-2 activity, a sample containing 5×10^4 CTLD cells, 10% fetal calf serum and 50% of supernatant in question, all were suspended in a final volume of 1 ml RPMI. Aliquots of 0.2 ml from each sample were placed in four replicate wells of 96 microwell tissue culture plates (NUNC). Conditioned medium was obtained from cultures of Charles River rat spleen cells stimulated with Con A that contained a known amount of IL-2 as a reference in all assays.
3. The microwells were incubated for 24 hr at 37 degrees C. after which 1 microcurie/well of ^3 H-methylthymidine was added. […]

IL-2 [4] = experiment: IL-2 secretion by mouse spleen cells in vitro, CTLD proliferation (Example 17); assay type: cell-based, male Balb/c mice; conditions: 24 hours, 1 μg/ml of cell mixture
Protocol: The compounds listed below were tested in vitro at various concentrations that ranged from 10 μg/ml cells to 1×10^-6 μg/ml of cell mixtures. Cells were obtained from spleens of male Balb/c mice 6-8 weeks of age. Spleens were pushed through a stainless steel 60 mesh strainer to separate cells.

Question: Which results are given for Cl[TeH]1(Cl)(Cl)OCCO1 [Example 1]?
Answer: IL-2 (IL-2 [1]; 5 pg): 12,000 cpm; IL-2 (IL-2 [1]; 50 pg): 38,000 cpm; IL-2 (IL-2 [1]; 500 pg): 30,000 cpm; IL-2 (IL-2 [1]; 5 ng): 15,000 cpm; IL-2 (IL-2 [1]; 50 ng): 6,000 cpm; IL-2 (IL-2 [1]; 500 ng): 5,000 cpm; IL-2 (IL-2 [1]; 5 μg): 5,000 cpm; IL-2 (IL-2 [1]; 50 μg): 5,000 cpm; IL-2 activity (IL-2 [2]; 1 ng): 11,000 Counts per minute; IL-2 activity (IL-2 [2]; 10 ng): 1,500 Counts per minute; IL-2 activity (IL-2 [2]; 1 μg): 250 Counts per minute; IL-2 activity (IL-2 [2]; 100 μg): 280 Counts per minute; IL-2 activity (IL-2 [3]; 1 μg IP, day 1, individual mouse): 25,919 CPM and 34,326 CPM and 16,718 CPM; IL-2 activity (IL-2 [3]; 1 μg IP, day 2, individual mouse): 21,398 CPM and 22,050 CPM and 9,338 CPM; IL-2 activity (IL-2 [3]; 1 μg IP, day 3, individual mouse): 10,130 CPM and 13,235 CPM and 2,176 CPM; IL-2 activity (IL-2 [3]; 1 μg IP, day 4, individual mouse): 31,999 CPM and 14,226 CPM and 17,228 CPM; IL-2 activity (IL-2 [3]; 1 μg IP, day 6, individual mouse): 41,261 CPM and 80,314 CPM and 42,485 CPM; IL-2 activity (IL-2 [3]; 1 μg IP, day 7, individual mouse): 66,854 CPM and 58,094 CPM and 51,268 CPM; IL-2 activity (IL-2 [3]; 10 μg IP, day 1, individual mouse): 24,335 CPM and 21,193 CPM and 25,381 CPM; IL-2 activity (IL-2 [3]; 10 μg IP, day 2, individual mouse): 31,901 CPM and 36,390 CPM and 22,066 CPM; IL-2 activity (IL-2 [3]; 10 μg IP, day 3, individual mouse): 20,316 CPM and 18,288 CPM and 12,126 CPM; IL-2 activity (IL-2 [3]; 10 μg IP, day 4, individual mouse): 26,644 CPM and 18,051 CPM and 65,963 CPM; IL-2 activity (IL-2 [3]; 10 μg IP, day 6, individual mouse): 22,040 CPM and 74,043 CPM and 43,838 CPM; IL-2 activity (IL-2 [3]; 10 μg IP, day 7, individual mouse): 85,216 CPM and 6,299 CPM; Spleen Cells (IL-2 activity) (IL-2 [4]): 14,600 cpm; activation at 1 µg/mL (IL-2 [4]; Mus musculus, read-out: Spleen Cells, percent in parentheses (increase over control)): 472%
